# Measured values as given in patent US20090105283A1, “3-HYDROQUINAZOLIN-4-ONE DERIVATIVES FOR USE AS STEAROYL CoA DESATURASE INHIBITORS” (priority 2007, published 2009).
# Molecular target: T1, stearoyl-CoA desaturase (SCD) (Rattus norvegicus, UniProt P07308)
# T1 construct: The microsomes were quickly thawed and added to assay buffer so that a concentration of 0.4 mg/ml was achieved; from tissue
# T1 sequence (P07308 1-358): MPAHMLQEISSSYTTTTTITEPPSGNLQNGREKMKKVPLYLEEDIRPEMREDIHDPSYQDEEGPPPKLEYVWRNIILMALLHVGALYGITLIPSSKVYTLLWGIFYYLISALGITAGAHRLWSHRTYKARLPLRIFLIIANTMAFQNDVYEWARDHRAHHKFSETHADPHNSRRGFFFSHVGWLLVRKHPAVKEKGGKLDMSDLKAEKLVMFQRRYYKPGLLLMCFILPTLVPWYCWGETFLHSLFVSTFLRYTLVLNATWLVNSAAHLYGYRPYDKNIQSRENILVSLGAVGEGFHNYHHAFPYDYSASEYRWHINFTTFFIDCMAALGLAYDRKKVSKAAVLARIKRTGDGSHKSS
# Assay: SCD assay with rat liver microsomes ([3H]stearoyl CoA, adapted from Talamo and Bloch)
# Format: biochemical
# Settings: Table 2 (Example 21, procedures of Example 20); rat liver microsomes, [3H]stearoyl CoA substrate
# In short: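 Liver microsomes came from diet-induced male Sprague Dawley rats and were used at 0.2 mg/ml final. Assay buffer was Tris pH 7.2 with NADH, ATP, CoA, MgCl2 and 0.1% BSA. Compounds were preincubated 30 min, then reacted 45 min at room temperature with [3H]stearoyl-CoA; after TCA stop and Bio-Bead cleanup, supernatant radioactivity was counted by scintillation.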
row,SMILES,IC50 [µM]
1,"O=C(CO)Nc1ccc2ncn(Cc3ccc(F)c(C(F)(F)F)c3)c(=O)c2c1 [compound 16, N-(3-(4-fluoro-3-(trifluoromethyl)benzyl)-4-oxo-3,4-dihydroquinazolin-6-yl)-2-hydroxyacetamide]",0.92
2,"CC(=O)Nc1ccc2ncn(Cc3ccc(F)c(F)c3)c(=O)c2c1 [compound 18, N-(3-(3,4-difluorobenzyl)-4-oxo-3,4-dihydroquinazolin-6-yl)acetamide]",26
3,"CC(=O)Nc1ccc2ncn(Cc3ccc(C(F)(F)F)cc3)c(=O)c2c1 [compound 19, N-(4-oxo-3-(4-(trifluoromethyl)benzyl)-3,4-dihydroquinazolin-6-yl)acetamide]",28
4,"Cc1ccc(Cn2cnc3ccc(NC(=O)OCc4ccccc4)cc3c2=O)cc1C [compound 20, benzyl 3-(3,4-dimethylbenzyl)-4-oxo-3,4-dihydroquinazolin-6-ylcarbamate]",0.23
5,"CC(=O)OCC(=O)Nc1ccc2ncn(Cc3ccc(C)c(C)c3)c(=O)c2c1 [compound 21, 2-(3-(3,4-dimethylbenzyl)-4-oxo-3,4-dihydroquinazolin-6-ylamino)-2-oxoethyl acetate]",0.47
6,"Cc1ccc(Cn2cnc3ccc(NC(=O)CO)cc3c2=O)cc1C [compound 22, N-(3-(3,4-dimethylbenzyl)-4-oxo-3,4-dihydroquinazolin-6-yl)-2-hydroxyacetamide]",0.28
7,"CCC(c1ccc(Cl)c(Cl)c1)n1cnc2ccc(NC(=O)COC(C)=O)cc2c1=O (centres unmarked) [compound 25, 2-(3-(1-(3,4-dichlorophenyl)propyl)-4-oxo-3,4-dihydroquinazolin-6-ylamino)-2-oxoethyl acetate]",0.5
8,"O=C(CO)Nc1ccc2ncn(Cc3cccc(-c4ccccc4)c3)c(=O)c2c1 [compound 29, N-(3-(biphenyl-3-ylmethyl)-4-oxo-3,4-dihydroquinazolin-6-yl)-2-hydroxyacetamide]",3.9
9,"CCC(c1ccc(Cl)c(Cl)c1)n1cnc2ccc(NC(=O)OCc3ccccc3)cc2c1=O (centres unmarked) [compound 30, benzyl 3-(1-(3,4-dichlorophenyl)propyl)-4-oxo-3,4-dihydroquinazolin-6-ylcarbamate]",1.4
10,"O=C(CO)Nc1ccc2ncn(Cc3ccc4ccccc4c3)c(=O)c2c1 [compound 31, 2-hydroxy-N-(3-(naphthalen-2-ylmethyl)-4-oxo-3,4-dihydroquinazolin-6-yl)acetamide]",0.34
11,"O=C(Nc1ccc2ncn(Cc3ccc4ccccc4c3)c(=O)c2c1)OCc1ccccc1 [compound 32, benzyl 3-(naphthalen-2-ylmethyl)-4-oxo-3,4-dihydroquinazolin-6-ylcarbamate]",0.72
12,"O=C(CO)Nc1ccc2c(=O)n(Cc3ccc4ccccc4c3)cnc2c1 [compound 33, 2-hydroxy-N-(3-(naphthalen-2-ylmethyl)-4-oxo-3,4-dihydroquinazolin-7-yl)acetamide]",2.8
13,"C[C@H](c1ccc(Cl)c(C(F)(F)F)c1)n1cnc2ccc(NC(=O)CO)cc2c1=O [compound 34, (R)—N-(3-(1-(4-chloro-3-(trifluoromethyl)phenyl)ethyl)-4-oxo-3,4-dihydroquinazolin-6-yl)-2-hydroxyacetamide]",0.48
14,"C[C@@H](c1ccc(Cl)c(Cl)c1)n1cnc2cc(NC(=O)CO)ccc2c1=O [compound 35, (S)—N-(3-(1-(3,4-dichlorophenyl)ethyl)-4-oxo-3,4-dihydroquinazolin-7-yl)-2-hydroxyacetamide]",1.8
15,"C[C@H](c1ccc(Cl)c(Cl)c1)n1cnc2cc(NC(=O)CO)ccc2c1=O [compound 36, (R)—N-(3-(1-(3,4-dichlorophenyl)ethyl)-4-oxo-3,4-dihydroquinazolin-7-yl)-2-hydroxyacetamide]",0.058
16,"O=C(CO)Nc1ccc2ncn(CCc3ccc(Cl)cc3)c(=O)c2c1 [compound 37, N-(3-(4-chlorophenethyl)-4-oxo-3,4-dihydroquinazolin-6-yl)-2-hydroxyacetamide]",0.02
17,"O=C(CO)Nc1ccc2ncn(CCc3cccc(Cl)c3)c(=O)c2c1 [compound 38, N-(3-(3-chlorophenethyl)-4-oxo-3,4-dihydroquinazolin-6-yl)-2-hydroxyacetamide]",5.8
18,"O=C(Nc1ccc2ncn(CCCOc3ccccc3C(F)(F)F)c(=O)c2c1)OCc1ccccc1 [compound 41, benzyl 4-oxo-3-(3-(2-(trifluoromethyl)phenoxy)propyl)-3,4-dihydroquinazolin-6-ylcarbamate]",0.069
19,"O=C(CO)Nc1ccc2ncn(CCCOc3cc(Cl)ccc3Cl)c(=O)c2c1 [compound 43, N-(3-(3-(2,5-dichlorophenoxy)propyl)-4-oxo-3,4-dihydroquinazolin-6-yl)-2-hydroxyacetamide]",0.055
20,"O=C(Nc1ccc2ncn(CCCOc3cc(Cl)ccc3Cl)c(=O)c2c1)OCc1ccccc1 [compound 44, benzyl 3-(3-(2,5-dichlorophenoxy)propyl)-4-oxo-3,4-dihydroquinazolin-6-ylcarbamate]",0.055
21,"O=C(Nc1ccc2ncn(CCCOc3ccccc3F)c(=O)c2c1)OCc1ccccc1 [compound 46, benzyl 3-(3-(2-fluorophenoxy)propyl)-4-oxo-3,4-dihydroquinazolin-6-ylcarbamate]",0.49
22,"CC(=O)OCC(=O)Nc1ccc2ncn(CCCOc3ccccc3F)c(=O)c2c1 [compound 47, 2-(3-(3-(2-fluorophenoxy)propyl)-4-oxo-3,4-dihydroquinazolin-6-ylamino)-2-oxoethyl acetate]",9.8
23,"O=C(CO)Nc1ccc2c(=O)n(CCCOc3ccccc3F)cnc2c1 [compound 48, N-(3-(3-(2-fluorophenoxy)propyl)-4-oxo-3,4-dihydroquinazolin-7-yl)-2-hydroxyacetamide]",11
24,"O=C(Nc1ccc2c(=O)n(CCCOc3cc(Cl)ccc3Cl)cnc2c1)OCc1ccccc1 [compound 50, benzyl 3-(3-(2,5-dichlorophenoxy)propyl)-4-oxo-3,4-dihydroquinazolin-7-ylcarbamate]",0.45
25,"O=C(CO)Nc1ccc2c(=O)n(CCCOc3cc(Cl)ccc3Cl)cnc2c1 [compound 51, N-(3-(3-(2,5-dichlorophenoxy)propyl)-4-oxo-3,4-dihydroquinazolin-7-yl)-2-hydroxyacetamide]",0.086

# Further compounds by falling IC50, results first:
row,IC50 [µM],SMILES
1,4.9,"O=C(CO)Nc1ccc2ncn(CCc3ccc(Cl)cc3Cl)c(=O)c2c1 [compound 39, N-(3-(2,4-dichlorophenethyl)-4-oxo-3,4-dihydroquinazolin-6-yl)-2-hydroxyacetamide]"
2,4.5,"O=C(CO)Nc1ccc2ncn(CCCc3ccccc3)c(=O)c2c1 [compound 27, 2-hydroxy-N-(4-oxo-3-(3-phenylpropyl)-3,4-dihydroquinazolin-6-yl)acetamide]"
3,3.9,"CC(=O)Nc1ccc2ncn(Cc3ccc(Cl)c(Cl)c3)c(=O)c2c1 [compound 17, N-(3-(3,4-dichlorobenzyl)-4-oxo-3,4-dihydroquinazolin-6-yl)acetamide]"
4,3.3,"CCC(c1ccc(Cl)c(Cl)c1)n1cnc2ccc(NC(=O)CO)cc2c1=O (centres unmarked) [compound 26, N-(3-(1-(3,4-dichlorophenyl)propyl)-4-oxo-3,4-dihydroquinazolin-6-yl)-2-hydroxyacetamide]"
5,1.5,"CC(=O)OCC(=O)Nc1ccc2ncn(Cc3ccccc3C(F)(F)F)c(=O)c2c1 [compound 28, 2-oxo-2-(4-oxo-3-(2-(trifluoromethyl)benzyl)-3,4-dihydroquinazolin-6-ylamino)ethyl acetate]"
6,1.4,"O=C(Nc1ccc2ncn(Cc3cccc(C(F)(F)F)c3)c(=O)c2c1)OCc1ccccc1 [compound 40, benzyl 4-oxo-3-(3-(trifluoromethyl)benzyl)-3,4-dihydroquinazolin-6-ylcarbamate]"
7,1.3,"CC(=O)OCC(=O)Nc1ccc2ncn(CCCc3ccccc3)c(=O)c2c1 [compound 24, 2-oxo-2-(4-oxo-3-(3-phenylpropyl)-3,4-dihydroquinazolin-6-ylamino)ethyl acetate]"
8,0.48,"N#Cc1ccccc1OCCCn1cnc2ccc(NC(=O)OCc3ccccc3)cc2c1=O [compound 49, benzyl 3-(3-(2-cyanophenoxy)propyl)-4-oxo-3,4-dihydroquinazolin-6-ylcarbamate]"
9,0.29,"O=C(CO)Nc1ccc2ncn(CCOc3cc(Cl)ccc3Cl)c(=O)c2c1 [compound 42, N-(3-(2-(2,5-dichlorophenoxy)ethyl)-4-oxo-3,4-dihydroquinazolin-6-yl)-2-hydroxyacetamide]"
10,0.21,"CC(c1ccc(Cl)c(Cl)c1)n1cnc2ccc(NC(=O)CO)cc2c1=O (centres unmarked) [compound 23, N-(3-(1-(3,4-dichlorophenyl)ethyl)-4-oxo-3,4-dihydroquinazolin-6-yl)-2-hydroxyacetamide]"
11,0.12,"O=C(CO)Nc1ccc2ncn(CCCOc3ccccc3C(F)(F)F)c(=O)c2c1 [compound 45, 2-hydroxy-N-(4-oxo-3-(3-(2-(trifluoromethyl)phenoxy)propyl)-3,4-dihydroquinazolin-6-yl)acetamide]"
12,0.1,"Cc1ccccc1OCCCn1cnc2ccc(NC(=O)CO)cc2c1=O [compound 53, 2-hydroxy-N-(4-oxo-3-(3-(o-tolyloxy)propyl)-3,4-dihydroquinazolin-6-yl)acetamide]"
13,0.044,"Cc1ccccc1OCCCn1cnc2ccc(NC(=O)OCc3ccccc3)cc2c1=O [compound 52, benzyl 4-oxo-3-(3-(o-tolyloxy)propyl)-3,4-dihydroquinazolin-6-ylcarbamate]"
